Here are results for 15 compounds from patent publication US11155559B2, “Sulfonyl-substituted isoquinolines as inhibitors of RHO kinase and hERG potassium channel activity” (CHINA RESOURCES PHARMACEUTICAL HOLDINGS COMPANY LIMITED, priority 2017, dated 2021).

One data set deals with hERG potassium channel (Homo sapiens, UniProt Q12809). Put plainly: hERG experiment (QPatch HTX whole-cell, CHO-hERG cells). The settings on record: room temperature, tested at 0.24 to 30.00 μM, read-out: hERG inhibitory activity (IC50). The data set is classed as cell-based. The method, then: The cells stably expressing hERG potassium channel used in the experiment were derived from CHO-hERE of Aviva Biosciences, CHO-hERG was cultured under 5% CO2 at 37° C. hERGQPatch^HTX experiments were performed at room temperature. QPatch AssaySoftware 5.2 (Sophion Bioscience) software was used to establish whole-cell protocols, voltage stimulation protocols and compound detection protocols. First, the voltage stimulation was repeated for 30 times, this section was used as the baseline area for subsequent analysis, then 5 μL extracellular fluid was added and repeated three times. The effect concentrations of each compound were added one after the other, repeating three times by the addition of 5 μL volume. The cells were incubated at each test concentration for at least 5 mins. During the entire recording process, each indicator must meet the data analysis acceptance criteria, if the criterion is not met, the cell will not be counted in the analysis range, and the compound will be tested again, the above recording process is automatically operated by Qpatch analysis software. […] In each complete current record, based on the percentage of peak current in the negative control group, the percentage inhibition of the effect concentration of each compound can be calculated. […]
Chain of hERG potassium channel (Q12809 whole entry): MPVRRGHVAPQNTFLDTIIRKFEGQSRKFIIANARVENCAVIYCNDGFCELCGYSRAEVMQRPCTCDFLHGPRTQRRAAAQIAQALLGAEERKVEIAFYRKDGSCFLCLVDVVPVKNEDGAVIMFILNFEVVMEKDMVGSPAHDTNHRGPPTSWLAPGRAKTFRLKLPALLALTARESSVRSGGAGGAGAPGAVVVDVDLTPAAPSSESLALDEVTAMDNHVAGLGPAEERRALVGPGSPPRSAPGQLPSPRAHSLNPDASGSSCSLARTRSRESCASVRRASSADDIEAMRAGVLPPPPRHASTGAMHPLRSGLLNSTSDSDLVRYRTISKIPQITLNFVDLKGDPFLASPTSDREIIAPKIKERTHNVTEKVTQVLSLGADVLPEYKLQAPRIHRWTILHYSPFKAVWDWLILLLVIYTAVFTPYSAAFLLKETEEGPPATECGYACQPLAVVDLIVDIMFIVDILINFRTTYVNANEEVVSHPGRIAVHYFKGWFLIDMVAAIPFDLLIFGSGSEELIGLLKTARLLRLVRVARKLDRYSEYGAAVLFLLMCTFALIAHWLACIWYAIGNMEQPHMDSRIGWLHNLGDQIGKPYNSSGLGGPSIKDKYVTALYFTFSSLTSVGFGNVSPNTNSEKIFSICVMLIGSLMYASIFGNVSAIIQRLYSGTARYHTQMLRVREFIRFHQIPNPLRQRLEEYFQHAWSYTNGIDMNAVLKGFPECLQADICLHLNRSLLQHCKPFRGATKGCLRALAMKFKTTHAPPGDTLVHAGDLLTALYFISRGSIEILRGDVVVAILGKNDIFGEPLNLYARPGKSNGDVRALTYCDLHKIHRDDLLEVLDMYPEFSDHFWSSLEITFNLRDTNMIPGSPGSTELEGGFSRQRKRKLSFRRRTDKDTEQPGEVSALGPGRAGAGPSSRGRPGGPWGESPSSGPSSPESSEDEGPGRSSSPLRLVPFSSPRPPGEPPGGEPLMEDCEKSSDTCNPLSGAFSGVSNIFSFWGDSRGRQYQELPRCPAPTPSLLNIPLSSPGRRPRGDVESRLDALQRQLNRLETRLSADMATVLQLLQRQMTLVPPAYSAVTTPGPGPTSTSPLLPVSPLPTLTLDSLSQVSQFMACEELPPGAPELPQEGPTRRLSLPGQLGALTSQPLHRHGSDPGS

In data set [1] the test system is bleomycin-induced rat pulmonary fibrosis. Put plainly: Pharmacodynamics in rats: bleomycin-induced unilateral (left lung) pulmonary fibrosis model. The data set is classed as in vivo, SD rats. As to conditions: for Percentage of pulmonary fibrosis score vs. model group (FIG. 2): Ashcraft score, boundary at 3 (3 or below vs. 4 or above). As for the experimental part:
Animals in each group started to be administered orally by gavage on the 8th day of modeling for a total of 14 days. All animals were euthanized the next day after the last administration, and the left lung was taken, and the same amount of formalin solution was infused into the lungs, the lung fibrosis score was analyzed by weighing and lung pathology.
Masson Trichrome staining was used for pathological evaluation of pulmonary fibrosis lesion area, pulmonary fibrosis pathology score, and fibrosis grade parameters for left lung pulmonary fibrosis lesions. […] (FIG. 2).

Another data set has as its target ROCK protein kinase. In words: Evaluation of ROCK protein kinase inhibitory activity in vitro (33P-ATP filter-binding). The data set is classed as biochemical. As to conditions: 1 nM ROCK, 20 μM Long S6 Kinase substrate peptide, room temperature, two hours. The method, then:
Evaluation of ROCK Protein Kinase Inhibitory Activity In Vitro
Experimental object: detecting the inhibitory IC50 value of ROCK protein kinase of the compounds.
Assay buffer solution: 20 mM Hepes (pH 7.5), 10 mM MgCl2, 1 mM EGTA, 0.02% Brij35, 0.02 mg/ml BSA, 0.1 mM Na3VO4, 2 mM DTT, 1% DMSO
ROCK protein kinase substrate Long S6 Kinase substrate peptide was added to the freshly prepared buffer solution at a concentration of 20 μM. Then 1 nM ROCK protein kinase was added and stirred evenly. […] After pre-incubating at room temperature for 20 minutes, ^33P-ATP (radiation intensity 10 μCi/μL) was added to initiate the reaction and the reaction was carried out at room temperature for two hours. […] The Filter-Binding method was used to detect radiation intensity.
The protein kinase inhibitory activity of the compound was expressed as the residual protein kinase activity of a relatively blank substrate (DMSO alone). IC50 values and curves were calculated using Prism software package (GraphPad Software, san Diego Calif., USA).

Data set [2] in a line: Evaluation of pharmacokinetics in rats. The data set is classed as in vivo. As to conditions: rat, plasma, male SD rats, single administration, groups 2 mg/kg intravenous and 10 mg/kg oral gavage, route for this parameter not stated. As for the experimental part:
Evaluation of Pharmacokinetics in Rats Male SD rats were used as test animals, after a single administration, the blood concentrations of the compounds were measured and the pharmacokinetic behavior was evaluated. Six healthy adult male SD rats (7-10 weeks of age, purchased from Shanghai Slack Experimental Animal Co., Ltd.) were randomly divided into two groups of three animals each, and one group was administered the test compound intravenously at 2 mg/kg, the other group was administered orally by gavage the test compound at 10 mg/kg. The vehicle in the intravenous administration group and the gastric administration group was both 10% DMSO+18% HP-β-CD+72% physiological saline. Blood samples were collected from the animals in the intravenous group at 0.0833, 0.25, 0.5, 1, 2, 4, 8, and 24 hours after the administration, and blood samples were collected from the animals in the gavage group at 0.25, 0.5, 1, 2, 4, 6, 8 and 24 hours after the administration. LCMS-MS method was used to determine the plasma drug concentration. WinNonlin™ version 6.3 (Pharsight Mountain View, Calif.) pharmacokinetic software was used to calculate the relevant pharmacokinetic parameters by non-compartment model logarithmic trapezoid method.

The mark [3] stands for this setting: positive drugs: nintedanib 100 and 30 mg/kg/d-qd, pirfenidone 50 and 15 mg/kg/d-bid, oral gavage, 14 days, p<0.05.

Molecules are shown by their SMILES.

As for `Cc1cncc2cccc(S(=O)(=O)N3C[C@@H]4CCN[C@@H]4C3)c12` [Embodiment 38 (WO2015/165341), reference compound], at hERG potassium channel, the IC50 – broadly, the concentration at which inhibition is half-maximal – is 4600 nM. In the case of `O=S(=O)(c1cccc2cnccc12)N1CCCNCC1` [Fasudil, reference compound], the “Pulmonary fibrosis Ashcraft score vs. model group (FIG. 1)” value in data set [1] (oral, once a day at 25 mg/kg, 14 consecutive days, p<0.001) was “achieved the same effect as the positive drug in inhibiting pulmonary fibrosis”. With `O=S(=O)(c1cccc2cnccc12)N1CC2CCNC2C12CC2` (stereo not shown) [embodiment 1], at ROCK protein kinase, the IC50 was 20 nM. Same read-out and setting: in the case of `O=S(=O)(c1cccc2cncc(Cl)c12)N1CC2CCNC2C12CC2` (stereo not shown) [embodiment 2] it was 32 nM; in that of `O=S(=O)(c1cccc2cncc(F)c12)N1CC2CCNC2C12CC2` (stereo not shown) [embodiment 3], 93 nM. Still for that read-out and setting: the figure for `CC1C2NCCC2CN1S(=O)(=O)c1cccc2cncc(F)c12` (stereo not shown) [embodiment 6-1] is 65 nM; for `CC1C2NCCC2CN1S(=O)(=O)c1cccc2cncc(F)c12` (stereo not shown) [embodiment 6-2] it is 8 nM. For `CC1C2NCCC2CN1S(=O)(=O)c1cccc2cncc(F)c12` (stereo not shown) [embodiment 6], the IC50 is 12 nM at ROCK protein kinase and above 30000 nM on hERG potassium channel. In addition, the clearance in data set [2] (read-out: Clearance rate (Cl)) was 43.8 mL/min/kg. Also, in data set [2] (read-out: Half-life period (T1/2) (converted)), the half-life was 1.12 h. The “Percentage of pulmonary fibrosis score vs. model group (FIG. 2)” value in data set [1] (oral gavage, 14 days) is “significant statistical difference compared with the model group”. Further, the “Lowest dose effective in inhibiting pulmonary fibrosis” value in data set [1] (administered continuously for two weeks) is given as at most 1 mg/kg BID. In data set [1] (compared with nintedanib, pirfenidone and fasudil), the “Pulmonary fibrosis-improving effect compared with reference drugs” value is “comparable to that of nintedanib, pirfenidone, and fasudil at lower doses”. Further, the “Pulmonary fibrosis Ashcraft score vs. model group (FIG. 1)” value in data set [1] (oral, once a day at 3 mg/kg, 14 days, consistent with the same dose twice daily) is recorded as “significant effect on inhibiting pulmonary fibrosis”; in data set [1] (oral, twice a day at three doses (1, 3, 10 mg/kg/d-bid), 14 consecutive days, p<0.001), “significant inhibition of pulmonary fibrosis”.

On ROCK protein kinase, `CC1C2NCCC2CN1S(=O)(=O)c1cccc2cnccc12` (stereo not shown) [embodiment 7-1] returned an IC50 of 63 nM. Still for that read-out and setting: in the case of `CC1C2NCCC2CN1S(=O)(=O)c1cccc2cnccc12` (stereo not shown) [embodiment 7-2] it was 15 nM.

Compound `CC1C2NCCC2CN1S(=O)(=O)c1cccc2cnccc12` (stereo not shown) [embodiment 7] yielded an IC50 on ROCK protein kinase of 28 nM. Same read-out and setting: in the case of `Cc1cncc2cccc(S(=O)(=O)N3CC4CCNC4C3C)c12` (stereo not shown) [embodiment 8] it was 18 nM; in that of `CC1C2NCCC2CN1S(=O)(=O)c1cccc2c(O)ncc(F)c12` (stereo not shown) [embodiment 10], 783 nM.

As for `COC(=O)c1ccc2c(c1)NC(=O)/C2=C(\Nc1ccc(N(C)C(=O)CN2CCN(C)CC2)cc1)c1ccccc1` [nintedanib, reference compound], in data set [1] (oral gavage, 14 days), the “Percentage of pulmonary fibrosis score vs. model group (FIG. 2)” value is on record as “significant differences compared with the model group”. Besides, the “Pulmonary fibrosis Ashcraft score vs. model group (FIG. 1)” value in data set [1] (setting [3]) was “significantly improved the degree of pulmonary fibrosis”. In the same order, the values of `Cc1ccc(=O)n(-c2ccccc2)c1` [pirfenidone, reference compound] are “significant differences compared with the model group” and “significantly improved the degree of pulmonary fibrosis”.
